Source: patent US12685312B2, “Sulfonamide apyrase inhibitors” (Texas Crop Science, Inc., priority 2022, dated 2026)

Key:
[1] = test system: apyrase; experiment: Screen for apyrase inhibitors (Method 1, in vitro phosphate-release absorbance assay); type: biochemical; details: inhibitor conc at 1 mM stock, 1 hr room temperature, absorbance 630 nm; rounded average of two assay results
Procedure, shortened: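 Phosphate-release colorimetric assay (Windsor method) in 60 mM Hepes, 3 mM MgCl2, 3 mM CaCl2, 3 mM ATP, pH 6.5, with compound or DMSO control added. Released phosphate developed with ammonium molybdate and ascorbic acid/TCA, then stopped with citrate/acetic acid.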

[2] = test system: plant pathogenic fungi (Zymoseptoria tritici strains, Microdochium nivale); experiment: In vitro combination assay (Method 2), overall comparison with Roux Compound 13; type: cell-based; details: azoxystrobin, fluxapyroxad, desthio prothioconazole; three fungal strains
Experimental: (§1) Method 2: In Vitro Assessment of Combination Activity
(§2) Selected compounds were assessed in combination with fungicides against a range of commercially important plant pathogenic fungi.
(§3) The test was conducted as follows. A fungicide was applied to a fungal plant pathogen at a rate slightly below that at which it gave any control, in combination with a suitable dose of the test compound. The test compound was recorded as active if control of the pathogen was observed.
(§4) In more detail, the test was conducted as follows. For each combination of fungicide, pathogen and test compound, the following wells were used. Well 1 contained a fungal pathogen growing on agar, and a fungicide at a rate just below that at which it gave any control of the pathogen. Well 2 was the same as Well 1, except that the test compound was also added at Rate 1. Well 3 was the same as Well 2, except that the test compound was added at Rate 2, where Rate 2 was higher than Rate 1. Finally, as a benchmark, Well 4 was the same as Well 1, except that it contained the fungicide at a higher rate, at which it gave partial control of the pathogen. Each of the Wells 1 to 4 were run in duplicate, giving a total of 8 wells for each combination of fungicide, pathogen and test compound. For each well, after a suitable period of incubation, a visual assessment of the % control of the pathogen by the fungicide was made.
(§5) The following fungicides were used in this assay: azoxystrobin, fluxapyroxad, and desthio prothioconazole. The following fungal pathogens were used in this assay: First, a strain of Zymoseptoria tritici with a reduced susceptibility to strobilurin fungicides; second a strain of Zymoseptoria tritici with a reduced susceptibility to SDHI fungicides (i.e., those that inhibit succinate dehydrogenase); and third, Microdochium nivale.

[3] = test system: Microdochium nivale; experiment: In vitro assessment of combination activity with fungicides (Method 2); type: cell-based; details: fungicide at a rate just below that giving any control; visual % control;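 further: scored as inactive active or highly active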
Experimental: as §1, §2, §3, §4, §5

[4] = test system: Zymoseptoria tritici with a reduced susceptibility to SDHI fungicides; experiment: as above; type: cell-based; details: fungicide at a rate just below that giving any control; visual % control;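 further: scored as inactive active or highly active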
Experimental: as §1, §2, §3, §4, §5

[5] = test system: Zymoseptoria tritici with a reduced susceptibility to strobilurin fungicides; experiment: as above; type: cell-based; details: fungicide at a rate just below that giving any control; visual % control;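 further: scored as inactive active or highly active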
Experimental: as §1, §2, §3, §4, §5

% Inhibition of Apyrase [1] [%] | SMILES | enhancer activity in the combination assay compared with Roux Compound 13 [2] | also measured
77 | Cc1ccccc1NS(=O)(=O)c1cc(C(=O)Nc2cccc([N+](=O)[O-])c2)ccc1Cl [I-2, 4-chloro-N-(3-nitrophenyl)-3-(N-(o-tolyl)sulfamoyl)benzamide] | superior enhancer activity than Roux Compound 13 | –
54 | N#Cc1cccc(NC(=O)c2cccc(S(=O)(=O)Nc3ccc(Br)cc3)c2)c1 [I-16, 3-(N-(4-bromophenyl)sulfamoyl)-N-(3-cyanophenyl)benzamide] | superior enhancer activity than Roux Compound 13 | –
51 | COc1ccc(NC(=O)c2cccc(S(=O)(=O)Nc3ccc(Br)cc3)c2)cc1 [I-18, 3-(N-(4-bromophenyl)sulfamoyl)-N-(4-methoxyphenyl)benzamide] | superior enhancer activity than Roux Compound 13 | –
76 | O=C(Nc1ccc(Br)cc1)c1cccc(S(=O)(=O)Nc2cc(C(F)(F)F)ccc2Cl)c1 [I-178, N-(4-bromophenyl)-3-(N-(2-chloro-5-(trifluoromethyl)phenyl)sulfamoyl)benzamide] | superior enhancer activity than Roux Compound 13 | –
72 | O=C(Nc1cccc(Br)c1)c1cccc(S(=O)(=O)Nc2ccc3c(c2)OCO3)c1 [I-186, 3-(N-(benzo[d][1,3]dioxol-5-yl)sulfamoyl)-N-(3-bromophenyl)benzamide] | superior enhancer activity than Roux Compound 13 | –
76 | Cc1cc(NC(=O)c2cccc(NS(=O)(=O)c3ccc(F)c(F)c3)c2)ccc1Br [I-191, N-(4-bromo-3-methylphenyl)-3-((3,4-difluorophenyl)sulfonamido)benzamide] | superior enhancer activity than Roux Compound 13 | –
77 | O=C(Nc1ccc(Br)cc1)c1cccc(S(=O)(=O)Nc2ccc3c(c2)OCO3)c1 [I-201, 3-(N-(benzo[d][1,3]dioxol-5-yl)sulfamoyl)-N-(4-bromophenyl)benzamide] | superior enhancer activity than Roux Compound 13 | –
75 | Cc1ccc(C(=O)Nc2cccc(NS(=O)(=O)c3ccccc3)c2)cc1F [I-209, 3-fluoro-4-methyl-N-(3-(phenylsulfonamido)phenyl)benzamide] | superior enhancer activity than Roux Compound 13 | –
70 | O=C(Nc1cccc(C(F)(F)F)c1)c1cccc(NS(=O)(=O)c2cccc(C(F)(F)F)c2)c1 [I-217, N-(3-(trifluoromethyl)phenyl)-3-((3-(trifluoromethyl)phenyl)sulfonamido) benzamide] | superior enhancer activity than Roux Compound 13 | –
73 | O=C(Nc1cccc(S(=O)(=O)Nc2ccc(Br)cc2)c1)C1CCCCC1 [I-219, N-(3-(N-(4-bromophenyl)sulfamoyl)phenyl) cyclohexanecarboxamide] | superior enhancer activity than Roux Compound 13 | –
67 | O=C(Nc1cccc(S(=O)(=O)Nc2ccc(Br)cc2)c1)c1ccc(Cl)nc1 [I-221, N-(3-(N-(4-bromophenyl)sulfamoyl)phenyl)-6-chloronicotinamide] | superior enhancer activity than Roux Compound 13 | –
73 | O=C(/C=C/c1ccco1)Nc1cccc(S(=O)(=O)Nc2ccc(Br)cc2)c1 [I-226, (E)-N-(3-(N-(4-bromophenyl)sulfamoyl)phenyl)-3-(furan-2-yl)acrylamide] | superior enhancer activity than Roux Compound 13 | –
66 | N#Cc1ccccc1S(=O)(=O)Nc1cccc(C(=O)Nc2cccc(C(F)(F)F)c2)c1 [I-229, 3-((2-cyanophenyl)sulfonamido)-N-(3-(trifluoromethyl)phenyl)benzamide] | superior enhancer activity than Roux Compound 13 | –
61 | COC(=O)c1ccc(NC(=O)c2ccccc2S(=O)(=O)N(C)c2ccccc2)cc1 [I-233, methyl 4-(2-(N-methyl-N-phenylsulfamoyl)benzamido)benzoate] | superior enhancer activity than Roux Compound 13 | –
69 | O=C(Nc1cccc(C(F)(F)F)c1)c1cccc(NS(=O)(=O)c2cccc(Cl)c2)c1 [I-317, 3-((3-chlorophenyl)sulfonamido)-N-(3-(trifluoromethyl)phenyl)benzamide] | superior enhancer activity than Roux Compound 13 | –
59 | O=C(Nc1ccccc1)c1ccc(S(=O)(=O)Nc2ccccc2)cc1 [I-392, N-phenyl-4-(N-phenylsulfamoyl)benzamide] | – | enhancement of activity of desthio prothioconazole [3]: highly active; enhancement of activity of azoxystrobin [4]: enhanced the activity; enhancement of activity of desthio prothioconazole [4]: highly active; enhancement of activity of azoxystrobin [5]: enhanced the activity; enhancement of activity of desthio prothioconazole [5]: highly active
82 | COc1cc(Cl)c(C)cc1NC(=O)c1ccccc1S(=O)(=O)N(C)c1ccccc1 [I-807, N-(4-chloro-2-methoxy-5-methylphenyl)-2-(N-methyl-N-phenylsulfamoyl)benzamide] | superior enhancer activity than Roux Compound 13 | –
16 | COc1ccc(NS(=O)(=O)c2ccc(NC(=O)c3ccc(Cl)cc3)cc2)cc1 [I-1001, 4-chloro-N-(4-(N-(4-methoxyphenyl)sulfamoyl)phenyl)benzamide] | – | –
3 | COc1ccc(NS(=O)(=O)c2ccc(NC(=O)c3ccc(F)cc3)cc2)cc1 [I-1002, 4-fluoro-N-(4-(N-(4-methoxyphenyl)sulfamoyl)phenyl)benzamide] | – | –
47 | Cc1ccnn1-c1ccc(C(=O)Nc2ccc(NS(=O)(=O)c3ccc4c(c3)OCCO4)cc2)cc1 [I-1003, N-(4-((2,3-dihydrobenzo[b][1,4]dioxine)-6-sulfonamido)phenyl)-4-(5-methyl-1H-pyrazol-1-yl)benzamide] | – | –
46 | CCOc1ccc(Br)cc1S(=O)(=O)Nc1ccc(NC(=O)c2ccccc2F)cc1 [I-1004, N-(4-((5-bromo-2-ethoxyphenyl)sulfonamido)phenyl)-2-fluorobenzamide] | – | –
42 | COc1ccc(NS(=O)(=O)c2cccc(C(=O)Nc3ccc(C#N)cc3)c2)cc1 [I-1006, N-(4-cyanophenyl)-3-(N-(4-methoxyphenyl)sulfamoyl)benzamide] | – | –
33 | O=C(Nc1cccc(OC(F)F)c1)c1cccc(S(=O)(=O)Nc2cccc(C(F)(F)F)c2)c1 [I-1007, N-(3-(difluoromethoxy)phenyl)-3-(N-(3-(trifluoromethyl)phenyl)sulfamoyl)benzamide] | – | –
29 | Cc1ccc(NS(=O)(=O)c2cccc(C(=O)Nc3cccc(S(N)(=O)=O)c3)c2)cc1 [I-1008, N-(3-sulfamoylphenyl)-3-(N-(p-tolyl)sulfamoyl)benzamide] | – | –
26 | Cc1n[nH]c(C)c1CCC(=O)Nc1cccc(NC(=O)c2cccc(S(=O)(=O)Nc3ccc(Br)cc3)c2)c1 [I-1009, 3-(N-(4-bromophenyl)sulfamoyl)-N-(3-(3-(3,5-dimethyl-1H-pyrazol-4-yl)propanamido)phenyl)benzamide] | – | –
– | O=C(Nc1cccc([N+](=O)[O-])c1)c1cccc(S(=O)(=O)Nc2ccc(Br)cc2)c1 [Roux compound 13, reference compound] | little or no activity | enhancement of activity of azoxystrobin [3]: enhancing the activity; enhancement of activity of azoxystrobin [4]: failing to enhance activity; enhancement of activity of desthio prothioconazole [4]: failing to enhance activity; enhancement of activity of fluxapyroxad [4]: failing to enhance activity; enhancement of activity of azoxystrobin [5]: failing to enhance activity; enhancement of activity of desthio prothioconazole [5]: failing to enhance activity; enhancement of activity of fluxapyroxad [5]: failing to enhance activity
